From US3985621A, “Stopping agents for enzyme reactions of dehydrogenase systems” (priority 1974, dated 1976)

Legend:
[1] = Influence of alkaline buffer solutions on absorption intensity of coenzyme at 340nm; type: physicochemical; details: for Absorption of NAD at 340nm: added to an enzyme reaction mixture containing EDTA
From the text: Such increasing action on absorption of NAD may continuously vary with the lapse of time and it is, therefore, difficult to correct influence caused therefrom.

[2] = Absorption at 340nm of NAD or NADP dissolved in aqueous strong alkali; type: physicochemical; details: e.g., sodium hydroxide or potassium hydroxide, then gradually decreased
From the text: Such changes continuously occur over several hours and the higher an alkali concentration is, the greater change is. It is, therefore, extremely difficult to find out such a condition that an enzyme reaction is stopped without any influence upon absorption of coenzyme, when an aqueous solution of a strong alkali having no buffer action is employed.

[3] = Stability of absorption intensity of coenzyme at 340nm after dissolution in CAPS buffer solution; type: physicochemical; details: for O.D. change at 340nm (change in absorbance per hour, 1 cm cell): coenzyme 1.1 × 10^-4 M, over 3 hours
Experimental: 1) Coenzyme dissolved in the indicated buffer solution to 1.1 ×
2) Change in absorbance per hour given when measured by the use of a cell
with optical path length of 1 cm.
3) Changes in absorbance of ±0.002A or less over 3 hours immediately
after dissolution are expressed as "not changed".

CPK = assay: Inhibitory action of CAPS buffer solution on dehydrogenase reaction, serum CPK diagnostic kit; type: biochemical, human
Experimental: CPK in serum is increased along with injury of skeletal muscle or heart muscle. For determination of CPK activity, creatine phosphoric acid and adenosine-5'-diphosphate (hereinafter referred to as ADP) are employed as substrates and further hexokinase (hereinafter referred to as HK), glucose, glucose-6-phosphate dehydrogenase (hereinafter referred to as G6PDH) and NADP are added to the reaction medium. By the action of CPK, ADP is converted to adenosine-5'-triphosphate (hereinafter referred to as ATP), while glucose in the reaction medium is converted to glucose-6-phosphate by the action of the ATP and HK. Thereafter, the glucose-6-phosphate is converted to 6-phosphogluconic acid by the action of G6PDH and NADP and NADP is converted to a reduced form of NADP (hereinafter referred to as NADPH), along with the conversion, which results in increased absorbance at 340nm. The ATP amount produced by CPK is stoichiometrically equal to that of NADP to be reduced.
(§1) Four enzymes which are widely employed for examination in clinical diagnosis among various serum enzymes, were tested on the inhibitory actions by CAPS buffer solution. […]

GOT = assay: Inhibitory action of CAPS buffer solution on dehydrogenase reaction, serum GOT diagnostic kit; type: biochemical, human
From the text: (§2) For measuring serum GOT or GPT activity, the reaction can be carried out through addition of malic dehydrogenase to the reaction medium in case of GOT and LDH in case of GPT, together with the enzyme substrates such as α-ketoglutaric acid and L-aspartic acid for the former enzyme or α-ketoglutaric acid and L-alanine for the latter, and a reduced form of NAD (hereinafter referred to as NADH) in either case. Oxaloacetic acid derived from aspartic acid with GOT (in case of GPT, pyruvic acid derived from alanine, the GPT case being hereinafter referred to in the parenthesis) is converted to malic acid (lacetic acid) with malic dehydrogenase (lactic dehydrogenase) and NADH concurrently with oxidation of NADH to NAD, which results in decrease of absorbance at 340nm arising from NADH. An amount of the oxaloacetic acid (pyruvic acid) produced by GOT (GPT) is stoichiometrically equal to that of the NADH to be oxidized and a GOT (GPT) activity can be, therefore, determined from an oxidized amount of NADH which is obtained from an absorbance decrease at 340nm.
as §1

ALD = assay: Inhibitory action of CAPS buffer solution on dehydrogenase reaction, serum ALD diagnostic kit; type: biochemical, human
From the text: In measuring ALD activity, one can carry out by adding to a reaction medium fructose-1,6-diphosphate which is a substrate, togethe with triose phosphate isomerase (hereinafter referred to as TMI) and glycerol-1-phosphate dehydrogenase (hereinafter referred to as GDH). In this system, the products by ALD are converted to dioxyacetone phosphoric acid, which is then converted to glycerol-1-phosphate by the action of GDH and NADH. NADH is simultaneously oxidized to NAD. Hydrolysis of 1 mole of fructose-1,6-diphosphate with ALD results in oxidation of 2 moles of NADH.
Four enzymes which are widely employed for examination in clinical diagnosis among various serum enzymes, were tested on the inhibitory actions by CAPS buffer solution. Some of our experiments are summarized in the Table 1 wherein changes in absorbance at 340nm during the whole process of the reaction are automatically recorded and expressed in terms of inhibition degree by adding serum to a reaction mixture for proceeding the reaction and then adding thereto CAPS buffer solution with varied concentrations, pH values and amounts added.
1) Diagnostic kits available from Calbiochem U.S.A., used for measuring
GOT, GPT and CPK and diagnostic kits available from Boeringer-Manheim,
West Germany, used for measuring ALD, standard human serum
(Caltrol-Abnormal) available from Calbiochem used for serum. […]

GPT = assay: Inhibitory action of CAPS buffer solution on dehydrogenase reaction, serum GPT diagnostic kit; type: biochemical, human
From the text: as §2, §1

dehydrogenase reaction = assay: Aqueous alkali solution of p-chloromercurybenzoate as stopping agent for dehydrogenase reaction; type: biochemical; details: reaction mixture of commercially available diagnostic kits
From the text: It is also reported in the art that an aqueous alkali solution of p-chloromercurybenzoate is applicable as a stopping agent for dehydrogenase reaction (E. Raabo, Scandinavian Journal of Clinical & Laboratory Investigation, 17, (1965), 265). […] Then, the prior solution seems to be of no practical use.

[4] = CAPS buffer solution 0.25M,pH12.5

NCC(=O)O [glycine buffer solution, glycine]
Absorption of NAD at 340nm [1]: increase in absorption of NAD at 340nm

NC(=O)c1ccc[n+]([C@@H]2O[C@H](COP(=O)([O-])OP(=O)(O)OC[C@H]3O[C@@H](n4cnc5c(N)ncnc54)[C@H](O)[C@@H]3O)[C@@H](O)[C@H]2O)c1 [NAD, nicotinamide-adenine dinucleotide]
Time to peak of absorption intensity at 340nm [2]: 10 to 20 min | O.D. change at 340nm (change in absorbance per hour, 1 cm cell) ([3]; CAPS buffer solution 0.25M,pH12.0): ≤ 0.005 A/hr/cm | O.D. change at 340nm (change in absorbance per hour, 1 cm cell) [3, 4]: ≤ 0.010 A/hr/cm | O.D. change at 340nm (change in absorbance per hour, 1 cm cell) ([3]; CAPS buffer solution 0.33M,pH11.5): ≤ 0.005 A/hr/cm | O.D. change at 340nm (change in absorbance per hour, 1 cm cell) ([3]; CAPS buffer solution 0.5M,pH11.5): ≤ 0.010 A/hr/cm | Stability of coenzyme in CAPS buffer solution ([3]; concentration 0.33M or more or pH 12 or higher): somewhat reduced

[Na+].[OH-] [NaOH soln., sodium hydroxide]
Complete inhibition concentration with aqueous NaOH soln. (Final concentration), CPK (CPK): > 0.1 N | Complete inhibition concentration with aqueous NaOH soln. (Final concentration), GOT (GOT): > 0.15 N | Complete inhibition concentration with aqueous NaOH soln. (Final concentration), ALD (ALD): > 0.1 N | Complete inhibition concentration with aqueous NaOH soln. (Final concentration), GPT (GPT): > 0.15 N

N=C(N)NCCC[C@H](N)C(=O)O [arginine buffer solution, arginine]
Absorption of NAD at 340nm [1]: increase in absorption of NAD at 340nm

O=C(O)c1cc[c]([Hg][Cl])cc1 [p-chloromercurybenzoate]
Inhibition of dehydrogenase reaction (dehydrogenase reaction): only partial inhibition

NC(=O)c1ccc[n+]([C@@H]2O[C@H](COP(=O)([O-])OP(=O)(O)OC[C@H]3O[C@@H](n4cnc5c(N)ncnc54)[C@H](OP(=O)(O)O)[C@@H]3O)[C@@H](O)[C@H]2O)c1 [NADP, nicotinamide adenine dinucleotide phosphate]
Time to peak of absorption intensity at 340nm [2]: 10 to 20 min | O.D. change at 340nm (change in absorbance per hour, 1 cm cell) [3, 4]: ≤ 0.005 A/hr/cm | Stability of coenzyme in CAPS buffer solution ([3]; pH 12.5 or higher): also reduced

N=C(N)N [guanidine buffer solution, guanidine]
Absorption of NAD ([1]; at the concentration and pH value to inhibit an action of an enzyme): may increase absorption of NAD
